The text below walks through data of US7411039B2, “GLP-2 compounds, formulations, and uses thereof” (Novo Nordisk A/S, priority 2002, dated 2008).

The test system of assay [1] is growth of the small intestine in mice. The class given is in vivo. To be noted: for Small intestinal weight, Mean ± SD / Small intestinal weight/body weight, Mean ± SD: group mean. From the text:
Bioassay in Mice. Dose-Response Study of GLP-2 Derivatives. • Table 3. Model parameter estimates following nonlinear regression analysis of dose and small intestinal weights relative to body weight. • Table 4. Model parameter estimates following nonlinear regression analysis of dose and small intestinal weights. • Table 5. Body weight, small intestinal weight and relative small intestinal weight of mice treated with L17K(3-(tetradecanoylamino)propionyl)/K30R-[…]. • Table 6. […]. Body weight, small intestinal weight and relative small intestinal weight of mice treated with A2G-[…]. • Table 8. Body weight, small intestinal weight and relative small intestinal weight of control mice.
The following GLP-2 derivatives and analog were tested: • 1. L17K(3-(tetradecanoylamino)propionyl)/K30R-[…]. • 2. L17K(3-(hexadecanoylamino)propionyl)/K30R-[…]. • 3. A2G-[…]. All derivatives were dissolved and diluted in buffer containing:
Disodiumhydrogenphosphate 1.42 mg/ml, Mannitol 36.9 mg/ml, Phenol 5 mg/ml, pH 8.0.
189 female C57b1 mice were used in the study. All animals were divided into four groups:
• Group 1: Controls • Group 2: L17K(3-(tetradecanoylamino)propionyl)/K30R-[…] • Group 3: L17K(3-(hexadecanoylamino)propionyl)/K30R-[…] • Group 4: A2G-[…] Dosing
All animals received a daily subcutaneous injection of 100 pi for 10 days with the following doses:
At Day 10 the animals were weighted before they were sacrificed. The intestine was carefully removed from each animal and the small intestine dissected, rinsed with saline and weighted.
Body weight, small intestinal weight and small intestinal weight relative to body weight were reported for all animals and used generating the dose-response relationship. The treatment-induced increase in both absolute and relative small intestinal weight is calculated for each treatment group, since this is considered the pharmacologically relevant efficacy parameter.
A generalised Michaelis-Menten model, with shape factor γ corresponding to the Hillslope in the semilogarithmic dose-response curve and E0 representing the background efficacy level at D=0, was used as dose-response model. Emax is the maximal effect observed and ED50 is the dose that gives an effect equal to 50% of Emax. The model was used because of the higher flexibility compared to a four parameter logistic dose-response model (1). The model was fitted to data using nonlinear regression in order to determine estimates for Emax, ED50, γ and E0.
[formula] The goodness of fit was evaluated by visual inspection of plots showing observed data points together with fitted curves and residuals plots. Parameter estimates are presented together with CV % and 95% C.I.
In order to account for the variability in the background efficacy level, control data were included in the nonlinear regression analysis as D=0 for all three treatment groups.
The nonlinear regression analyses were performed using WinNonlin Professional, version 3.1, Pharsight. The nonlinear regression was performed using the Gauss-Newton (Levenberg and Hartley) algorithm.

Assay [2] concerns Dextran sulfate (DS)-induced colitis. To be noted: 350 ng or 750 ng s.c. twice daily for 9-10 days, cited from earlier work.
Setting [3] is: background efficacy level at D=0, nonlinear regression of dose-response, mice, daily s.c. for 10 days.
Setting [4] is: dose level A, 33 μg daily s.c. for 10 days.
[5] abbreviates: dose level B, 16.5 μg daily s.c. for 10 days.
[6] abbreviates: dose level C, 8.25 μg daily s.c. for 10 days.
Where [7] appears, read: dose level D, 4.125 μg daily s.c. for 10 days.
Where [8] appears, read: dose level E, 2.063 μg daily s.c. for 10 days.
Setting [9] is: dose level F, 1.031 μg daily s.c. for 10 days.
[10] abbreviates: dose level G, 0.512 μg daily s.c. for 10 days.
Setting [11] is: nonlinear regression of dose-response.
Setting [12] is: nonlinear regression of dose-response, mice, daily s.c. for 10 days.
[13] abbreviates: treatment-induced increase, secondary parameter of curve fitting.

Structures are written as SMILES. Read-outs that look alike come from different tables or passages of the source.

Regarding `CC[C@H](C)[C@H](NC(=O)[C@H](Cc1ccccc1)NC(=O)[C@H](CC(=O)O)NC(=O)[C@H](CCCNC(=N)N)NC(=O)[C@H](C)NC(=O)[C@H](C)NC(=O)[C@H](CC(C)C)NC(=O)[C@H](CC(N)=O)NC(=O)[C@H](CC(=O)O)NC(=O)[C@H](CC(C)C)NC(=O)[C@@H](NC(=O)[C@@H](NC(=O)[C@H](CC(N)=O)NC(=O)[C@H](CCSC)NC(=O)[C@H](CCC(=O)O)NC(=O)[C@H](CC(=O)O)NC(=O)[C@H](CO)NC(=O)[C@H](Cc1ccccc1)NC(=O)[C@H](CO)NC(=O)CNC(=O)[C@H](CC(=O)O)NC(=O)CNC(=O)[C@@H](N)Cc1c[nH]cn1)[C@@H](C)O)[C@@H](C)CC)C(=O)N[C@@H](CC(N)=O)C(=O)N[C@@H](Cc1c[nH]c2ccccc12)C(=O)N[C@@H](CC(C)C)C(=O)N[C@H](C(=O)N[C@@H](CCC(N)=O)C(=O)N[C@H](C(=O)N[C@@H](CCCCN)C(=O)N[C@H](C(=O)N[C@H](C(=O)N[C@@H](CC(=O)O)C(=O)O)[C@@H](C)O)[C@@H](C)CC)[C@@H](C)O)[C@@H](C)CC` [A2G-GLP-2(1-33)], in assay [1] (setting [3]), the “E0, parameter estimate (CV %), small intestinal weight” value is 1.1095 (2.0) g. In assay [1] (setting [3]), the “E0, parameter estimate (CV %), small intestinal weight relative to body weight” value is on record as 0.0425 (2.4). For the same compound, the “Small intestinal weight, Mean ± SD” value turned out to be 1.2300 ± 0.1602 g in assay [1] (setting [4]); 1.1775 ± 0.1337 g in assay [1] (setting [5]); 1.2463 ± 0.1235 g in assay [1] (setting [6]); 1.1713 ± 0.1687 g in assay [1] (setting [7]); 1.0750 ± 0.1124 g in assay [1] (setting [8]); 1.1688 ± 0.0923 g in assay [1] (setting [9]). In assay [1] (setting [10]), the “Small intestinal weight, Mean ± SD” value came out at 1.1075 ± 0.1014 g. The “Small intestinal weight/body weight, Mean ± SD” value in assay [1] (setting [4]) amounted to 0.0501 ± 0.0057; in assay [1] (setting [5]), 0.0489 ± 0.0042; in assay [1] (setting [6]), 0.0484 ± 0.0052; in assay [1] (setting [7]), 0.0448 ± 0.0054; in assay [1] (setting [8]), 0.0443 ± 0.0027; in assay [1] (setting [9]), 0.0461 ± 0.0041. In addition, the “Small intestinal weight/body weight, Mean ± SD” value in assay [1] (setting [10]) turned out to be 0.0436 ± 0.0036. Also, the “γ (shape factor, Hillslope), parameter estimate (CV %), small intestinal weight” value in assay [1] (setting [11]) was 8.4169 (1869). The “γ (shape factor, Hillslope), parameter estimate (CV %), small intestinal weight relative to body weight” value in assay [1] (setting [11]) was 0.6625 (109). Moreover, in assay [1] (setting [12]), the “Emax, parameter estimate (CV %), small intestinal weight” value is listed as 1.2180 (2.3) g. Besides, the “Emax, parameter estimate (CV %), small intestinal weight relative to body weight” value in assay [1] (setting [12]) is 0.0548 (33.3). In assay [1] (setting [13]), the “Emax − E0, parameter estimate (CV %), small intestinal weight” value is 0.1085 (34.8) g. Further, in assay [1] (setting [13]), the “Emax − E0, parameter estimate (CV %), small intestinal weight relative to body weight” value is given as 0.0123 (151). Also, in assay [2] (DS mice), the histology of colon result was “exhibited a greater proportion of intact mucosal epithelium, increased colon length, crypt depth and mucosal area”. For the same compound, the body weight loss result in assay [2] (mice receiving 5% DS in the drinking water) is recorded as “lost significantly less body weight”.
